From ChEMBL document CHEMBL5550109, “Synergistic therapeutics: Co-targeting histone deacetylases and ribonucleotide reductase for enhanced cancer treatment” (Eur J Med Chem, 2024)

Target: T1, Ribonucleoside-diphosphate reductase subunit M2 (Homo sapiens, UniProt P31350)
T1 sequence (P31350 whole entry): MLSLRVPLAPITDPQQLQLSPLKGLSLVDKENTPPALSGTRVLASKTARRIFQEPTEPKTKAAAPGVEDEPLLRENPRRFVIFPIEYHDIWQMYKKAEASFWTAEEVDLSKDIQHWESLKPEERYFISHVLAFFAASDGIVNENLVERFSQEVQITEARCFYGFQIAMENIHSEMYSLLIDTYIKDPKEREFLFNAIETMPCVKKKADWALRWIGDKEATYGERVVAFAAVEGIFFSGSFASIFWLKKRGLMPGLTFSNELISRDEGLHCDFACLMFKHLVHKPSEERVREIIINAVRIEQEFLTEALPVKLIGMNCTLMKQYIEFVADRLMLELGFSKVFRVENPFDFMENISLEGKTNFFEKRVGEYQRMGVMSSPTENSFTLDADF
Experiment: Inhibition of human recombinant RRM2
Settings: not given

Row | Structure (SMILES) | IC50
1 | NC(=O)NO [HYDROXYUREA] | 601 µM

System: HCT-116
Experiment: Growth inhibition of human HCT-116 cells
Type: functional
Settings: pooled result: one value given for 3 cell lines, strains, targets or settings

Row | Structure (SMILES) | GI50
2 | COc1ccc(/C=N/Nc2nc(C)c(C(=O)NO)s2)cc1 | 32.8 µM
3 | Cc1nc(N/N=C/c2ccccc2O)sc1C(=O)NO | 36.7 µM
4 | Cc1nc(N/N=C/c2ccccc2)sc1C(=O)NO | 23.9 µM
5 | Cc1nc(N/N=C/c2ccc([N+](=O)[O-])cc2)sc1C(=O)NO | 40.7 µM
6 | C/C(=N\Nc1nc(C)c(C(=O)NO)s1)c1ccc(Cl)cc1 | > 50 µM
7 | C/C(=N\Nc1nc(C)c(C(=O)NO)s1)c1ccccc1 | > 50 µM
8 | COc1cccc(/C=N/Nc2nc(C)c(C(=O)NO)s2)c1 | > 50 µM
9 | Cc1nc(N/N=C/c2ccc(N(C)C)cc2)sc1C(=O)NO | 20.8 µM
10 | Cc1nc(N/N=C/c2ccc(Cl)cc2)sc1C(=O)NO | 21.6 µM
